# Where “and” joins values, the source holds several entries; their conditions need not be identical. Identical values can stand only once. Bridge positions count the residues as written; N and C are the ends. Square brackets hold non-standard residues; d marks the D form. Peptide text beside a SMILES is read from it. * marks the point of attachment. DO3A(CH2CH2SO2CH2CH2) = O=C(O)CN1CCN(CCS(=O)(=O)CC*)CCN(CC(=O)O)CCN(CC(=O)O)CC1; Ala(4-thiazolyl) = N[C@@H](Cc1cscn1)C(=O)O
# How the values were obtained:
# [1] = target: T1, human GCGR (HEK293 cells transfected with human GCGR) (Homo sapiens, UniProt P47871); assay: in vitro autoradiography, blocking on sections of frozen pellet of GCGR-transfected cells; type: binding; details: n = 3
# T1 construct: expressed in transfected cells; host or cells: HEK293
# Protocol: (§1) Sections were added in duplicates in each individual assay, and each experiment was repeated at least three times with different batches of radioligand, except for rat sections that were only performed in one assay.
# (§2) After incubation, the sections were washed three times in 150 mL PBS. Sections were carefully dried at 37 °C and then exposed against a digital phosphorimager plate overnight together with a 10-μl droplet of radioactive reference (cross-calibrated against a gamma counter) on an absorbent paper attached to an object glass. The phosphor imager plates were scanned using a Cyclone Plus Phosphor imager (Perkin Elmer) at 600 dpi, and the resulting autoradiograms analyzed by ImageJ software (NIH, Bethesda). Pixel values in counts/mm^2 were converted to Bq/mm^2 by the included reference. Bq/mm^2 was further converted to fmol/mm^2 by the known specific radioactivity (fmol/Bq) of each batch of radiopharmaceutical.
# [2] = in vitro autoradiography, pancreas sections; type: binding, cynomolgus monkey (NHP); details: NHP pancreas, 5–10 nM tracer
# Protocol: (§3) Liver and pancreas tissues were collected post-mortem from cynomolgus monkeys (NHP) and Sprague Dawley rats. The use of animal tissues collected post-mortem was approved by the Animal Research Ethical Committee of the Uppsala Region and was performed according to the Uppsala university guidelines on animal experimentation (UFV 2007/724).
# as §1, §2
# [3] = in vitro autoradiography, pancreas sections; type: binding, Sprague Dawley rat; details: rat pancreas, 5–10 nM tracer, n = 1
# Protocol: as §3, §1, §2
# [4] = target: T2, GCGR in rat liver sections (Rattus norvegicus, UniProt P30082); assay: in vitro autoradiography, liver sections; type: binding, Sprague Dawley rat
# T2 construct: from tissue; host or cells: frozen Sprague Dawley rat liver sections
# Protocol: as §3, §1, §2
# [5] = target: T3, HEK293 cells transfected with human GCGR (Homo sapiens, UniProt P47871); assay: cellular internalization assay; type: cell-based
# T3 construct: expressed in transfected cells; host or cells: HEK293
# Protocol: The assay was also performed at 4 °C (5% CO2) for 60 and 120 min to suppress internalization. The exact number of cells in each well was assessed by cell counter. After incubation, the hot media containing the radioligand was removed and the cells washed with serum-free media two to three times while cells were put on ice.
# To measure membrane bound and internalized radioligand, cells were treated first with 0.2 M glycine buffer containing 4 M urea (pH 2.5) (acid wash buffer) and secondly 1 M NaOH (basic wash buffer).
# Briefly, first 0.5 mL of acid wash buffer was added to the cells and allowed to incubate for 5 min on ice. The supernatant was then removed and measured in a well counter (membrane bound fraction) (Uppsala Imanet AB, Uppsala, Sweden). The cells were washed one time, before 0.5 mL of basic wash buffer was added and allowed to incubate for 30 min at 37 °C. Then, the detached cells were collected and measured by well counter (internalized fraction). All samples were repeated in triplicates.
# The well counter data for each dish and condition was decay corrected to the time at the start of each experiment and expressed as Bq. The internalized and the total cell-associated (internalized + cell membrane bound) fractions were expressed as percentage of the total added radioligand per million of cells (%ID/M cells). […]
# [6] = rat in vivo competition with precursor peptide; set-up: species or system Sprague Dawley rats; details: male, Sprague Dawley, total radioactivity, tracer alone, 40 min (S01) or 60 min (S02) p.i., S02 baseline stated for liver and spleen, read-out: baseline binding in the liver
# Protocol: (§4) A competition study with each respective radiotracer precursor peptide was performed to investigate in vivo selectivity in selected tissues (the blood, heart, lung, liver, pancreas, spleen, kidney, muscle, and bone marrow).
# (§5) Animals in each group (n = 4 for each radioligand) were co-injected with 1 mg/kg of either unlabelled DO3A-S01-GCG or -DO3A-S02-GCG peptide to determine the fraction of binding in each tissue which was receptor mediated.
# (§6) The time point of euthanasia for each radiotracer was determined based on liver-to-blood ratio obtained from the biodistribution study above, as well as the radionuclide half-life and known radiotracer precursor half-life in blood plasma. Tissue resection and analysis of radioactive uptake in each tissue (expressed as SUV) were performed and analyzed as described above.
# [7] = target: T4, GCG receptor (Rattus norvegicus, UniProt P30082); assay: rat in vivo competition with precursor peptide; set-up: species or system Sprague Dawley rats; details: 1 mg/kg unlabelled precursor
# T4 construct: tissue Taconic, Denmark (animals); host or cells: organs of living Sprague Dawley rats (liver, spleen, bone marrow and others)
# Protocol: as §4, §5, §6
# [8] = in vitro autoradiography, pancreas sections; type: binding; details: human pancreas, 5–10 nM tracer, n = 3
# Protocol: (§7) Biopsies from donor human liver and pancreas were obtained from Uppsala Biobank (sample collection 827), and their use was approved by local ethical review board (EPN 2015/401).
# as §1, §2
# [9] = human predicted dosimetry (OLINDA/EXM 1.1, from rat biodistribution)
# Protocol: The dosimetry calculations were performed as described previously for [^68Ga]Ga-DO3A-VS-Cys^40-Exendin4 [11].
# Briefly, animal-derived tissue uptake was normalized to that of human tissues (using tissue weights of whole body adult reference male and female phantoms). The normalized SUVs were then un-decay corrected to their respective time point to reflect the actual radiation burden in each tissue. The tissue residence times (MBq-h/MBq) were assessed by trapezoidal approximation of the un-decay-corrected human SUV biodistribution data. The tissue washout from the last time point (180 min) to infinity was estimated by a single mono-exponential fit.
# The estimation of the absorbed dose was performed by the OLINDA/EXM 1.1 software (Vanderbilt University, USA) where the calculations were based on the adult reference male or female phantoms to obtain the intended absorbed dose estimate in humans (ICRP60). The organ-specific doses are reported as mGy/MBq (effective dose as mSv/MBq). The amount of MBq that can be safely administered annually (MBq/year) was calculated for each organ as well as the effective dose, by dividing the limiting dose (10 mSv/year for the effective dose, 150 mGy/year for all tissues except for the red marrow and uterus with 50 mGy/year) by the dose (mGy/MBq or mSv/MBq).
# [10] = target: T5, GCGR in human liver sections (Homo sapiens, UniProt P47871); assay: in vitro autoradiography, liver sections; type: binding
# T5 construct: tissue Uppsala Biobank (sample collection 827); host or cells: frozen human liver sections
# Protocol: as §7, §1, §2
# [11] = extrapolated from rat biodistribution
# T4 sequence (P30082 27-485): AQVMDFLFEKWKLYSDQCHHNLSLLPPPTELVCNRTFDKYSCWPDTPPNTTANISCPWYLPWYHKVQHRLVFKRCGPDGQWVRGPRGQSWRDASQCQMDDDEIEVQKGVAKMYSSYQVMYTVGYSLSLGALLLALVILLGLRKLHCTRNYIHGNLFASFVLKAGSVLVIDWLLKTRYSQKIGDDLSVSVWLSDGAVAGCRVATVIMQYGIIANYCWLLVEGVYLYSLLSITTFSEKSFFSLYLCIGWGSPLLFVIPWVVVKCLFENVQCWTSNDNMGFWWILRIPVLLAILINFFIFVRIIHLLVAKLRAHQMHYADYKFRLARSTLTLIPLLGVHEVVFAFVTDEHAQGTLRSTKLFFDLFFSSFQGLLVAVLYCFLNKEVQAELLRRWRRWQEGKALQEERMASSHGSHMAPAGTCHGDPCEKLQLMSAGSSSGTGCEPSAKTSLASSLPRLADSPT
# T3 sequence (P47871 26-477): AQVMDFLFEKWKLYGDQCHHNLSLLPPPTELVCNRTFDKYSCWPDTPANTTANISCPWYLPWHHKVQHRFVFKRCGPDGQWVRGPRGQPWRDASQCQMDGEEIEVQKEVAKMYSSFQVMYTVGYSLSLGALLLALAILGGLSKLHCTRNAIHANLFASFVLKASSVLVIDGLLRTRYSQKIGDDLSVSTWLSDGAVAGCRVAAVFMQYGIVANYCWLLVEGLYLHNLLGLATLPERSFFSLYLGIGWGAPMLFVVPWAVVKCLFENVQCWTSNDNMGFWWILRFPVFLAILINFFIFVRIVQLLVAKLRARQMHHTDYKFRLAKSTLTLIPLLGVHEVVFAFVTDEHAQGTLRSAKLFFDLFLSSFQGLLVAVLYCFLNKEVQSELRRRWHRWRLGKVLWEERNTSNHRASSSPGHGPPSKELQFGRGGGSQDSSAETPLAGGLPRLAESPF
# T1 sequence (P47871 26-477): as above
# T5 sequence (P47871 26-477): as above
# T2 sequence (P30082 27-485): as the sequence (P30082 27-485) above
compound,measurement,setting,value
"CC[C@H](C)[C@H](NC(=O)[C@H](Cc1ccccc1)NC(=O)[C@H](CCC(=O)O)NC(=O)[C@@H]1CCCCNC(=O)CC[C@H](NC(=O)[C@H](CC(=O)O)NC(=O)[C@H](CC(C)C)NC(=O)[C@H](CCC(N)=O)NC(=O)[C@H](CCCCN)NC(=O)[C@H](CO)NC(=O)[C@H](Cc2ccc(O)cc2)NC(=O)[C@H](CC(=O)O)NC(=O)[C@H](CO)NC(=O)[C@@H](NC(=O)[C@H](Cc2ccccc2)NC(=O)[C@@H](NC(=O)CNC(=O)[C@H](CCC(N)=O)NC(=O)[C@@H](CO)NC(=O)[C@@H](N)Cc2cscn2)[C@@H](C)O)[C@@H](C)O)C(=O)N[C@@H](CCC(N)=O)C(=O)N[C@@H](CCCNC(=N)N)C(=O)N[C@@H](C)C(=O)N1)C(=O)N[C@@H](CCC(=O)O)C(=O)N[C@@H](Cc1c[nH]c2ccccc12)C(=O)N[C@@H](CC(C)C)C(=O)N[C@@H](CC(C)C)C(=O)N[C@@H](C)C(=O)N[C@H](C(=O)NCC(=O)N1CCC[C@H]1C(=O)N[C@@H](CCC(=O)O)C(=O)N[C@@H](CO)C(=O)NCC(=O)N[C@@H](C)C(=O)N1CCC[C@H]1C(=O)N1CCC[C@H]1C(=O)N1CCC[C@H]1C(=O)N[C@@H](CO)C(=O)N[C@@H](CSCCS(=O)(=O)CCN1CCN(CC(=O)O)CCN(CC(=O)O)CCN(CC(=O)O)CC1)C(N)=O)[C@@H](C)O [[^68Ga]Ga-DO3A-S01-GCG, metal not drawn] (H-[Ala(4-thiazolyl)][dS]QGTFTSDYSKQLDEQRAKEFIEWLLATGPESGAPPPSC(DO3A(CH2CH2SO2CH2CH2))-NH2; lactam 16-20)",effect of co-incubation with GCG on binding to sections of GCGR-transfected cell pellet,[1]; 10 μM GCG,completely abolished
same,effect of co-incubation with own precursor peptide on binding to sections of GCGR-transfected cell pellet,[1]; 10 μM precursor,completely abolished
same,binding in pancreas sections,[2],Only background binding
same,binding in pancreas sections,[3],Only background binding
same,effect of GLP-1 in excess on tracer binding to liver sections,"[4]; 1 μM GLP-1, n = 1",did not induce inhibition
same,inhibition of tracer binding to liver sections by co-incubation with own precursor peptide,"[4]; 10 μM precursor, n = 1",did not increase the degree of inhibition
same,binding to GCGR-transfected cells at steady state / plateau (total cell-associated),"[5]; 3–7 nM tracer, RT, after 60–120 min (S01) or 60 min (S02), triplicates, 3 batches",approximately 65 % ID/million cells
same,effect of cooling on internalization,"[5]; 4 °C, 60 and 120 min",suppressed almost completely
same,SUV,[6],> 2 SUV
same,decrease of binding in the spleen by co-injection of precursor peptide,"[7]; 40 min (S01) or 60 min (S02) p.i., n = 4 per group",> 80%
same,decrease of binding in the liver by co-injection of precursor peptide,"[7]; 40 min (S01) or 60 min (S02) p.i., n = 4 per group, 1 mg/kg",> 80% and 84%
same,effect of co-injection of precursor peptide on kidney uptake,[7]; 40 min p.i.,not affected
same,decrease of binding in the bone marrow by co-injection of precursor peptide,"[7]; 40 min p.i., n = 4 per group",> 80%
same,binding in pancreas sections,[8],Only background binding
same,"human predicted absorbed dose, kidneys",[9]; [11],0.53 mGy/MBq
same,human predicted whole body effective dose,[9]; [11],20.2 μSv/MBq
same,"calculated maximal annual dosing, limited by whole body effective dose",[9]; limit 10 mSv/year,495 MBq
same,"calculated maximal annual dosing, by bone marrow absorbed dose",[9]; limit 50 mGy/year,> 2000 MBq
same,"calculated maximal annual dosing, limited by kidney dose",[9]; limit 150 mGy/year,278 MBq
same,effect of GLP-1 in excess on tracer binding to liver sections,"[10]; 1 μM GLP-1, n = 3",did not induce inhibition
same,inhibition of tracer binding to liver sections by co-incubation with own precursor peptide,"[10]; 10 μM precursor, n = 3",did not increase the degree of inhibition
